Assay [1] addresses T1, human LDH-A (hLDH-A) (Homo sapiens, UniProt P00338).
T1 construct: gene LDHA; recombinant full length human LDHA (amino acids 1–332) with N terminal His tag
Nature of the assay: recombinant enzyme assay, NADH oxidation at […] nm; velocity at varied NADH ±[…] PGG. It is filed as biochemical.

The target of assay [2] is T1, human LDH-A (hLDH-A). Briefly: recombinant enzyme assay, NADH oxidation at […] nm. The assay is classed as biochemical.

pIC50: −log10 of the molar value.

On to `O=C(OC[C@H]1O[C@@H](OC(=O)c2cc(O)c(O)c(O)c2)[C@H](OC(=O)c2cc(O)c(O)c(O)c2)[C@@H](OC(=O)c2cc(O)c(O)c(O)c2)[C@@H]1OC(=O)c1cc(O)c(O)c(O)c1)c1cc(O)c(O)c(O)c1` [PGG, penta-1,2,3,4,6-O-galloyl-β-D-glucose], for which the pIC50 in assay [1] was 7.57.

For `O=C(O)C(=O)O` [oxalic acid], the negative logarithm of the IC50 (pIC50) in assay [2] was under 2.22.

As usually defined, the pIC50 is the negative decadic logarithm of the IC50, by convention in mol/L.
